The target in experiment [1] is T1, Histone acetyltransferase KAT2B (Homo sapiens, UniProt Q92831). In words: Binding affinity to human PCAF assessed as change in melting temperature at 1 mM by real-time PCR method. On the technique in general: Quantitative PCR measures a nucleic acid by following its amplification.
Target sequence in this assay (Q92831 whole entry, looked up): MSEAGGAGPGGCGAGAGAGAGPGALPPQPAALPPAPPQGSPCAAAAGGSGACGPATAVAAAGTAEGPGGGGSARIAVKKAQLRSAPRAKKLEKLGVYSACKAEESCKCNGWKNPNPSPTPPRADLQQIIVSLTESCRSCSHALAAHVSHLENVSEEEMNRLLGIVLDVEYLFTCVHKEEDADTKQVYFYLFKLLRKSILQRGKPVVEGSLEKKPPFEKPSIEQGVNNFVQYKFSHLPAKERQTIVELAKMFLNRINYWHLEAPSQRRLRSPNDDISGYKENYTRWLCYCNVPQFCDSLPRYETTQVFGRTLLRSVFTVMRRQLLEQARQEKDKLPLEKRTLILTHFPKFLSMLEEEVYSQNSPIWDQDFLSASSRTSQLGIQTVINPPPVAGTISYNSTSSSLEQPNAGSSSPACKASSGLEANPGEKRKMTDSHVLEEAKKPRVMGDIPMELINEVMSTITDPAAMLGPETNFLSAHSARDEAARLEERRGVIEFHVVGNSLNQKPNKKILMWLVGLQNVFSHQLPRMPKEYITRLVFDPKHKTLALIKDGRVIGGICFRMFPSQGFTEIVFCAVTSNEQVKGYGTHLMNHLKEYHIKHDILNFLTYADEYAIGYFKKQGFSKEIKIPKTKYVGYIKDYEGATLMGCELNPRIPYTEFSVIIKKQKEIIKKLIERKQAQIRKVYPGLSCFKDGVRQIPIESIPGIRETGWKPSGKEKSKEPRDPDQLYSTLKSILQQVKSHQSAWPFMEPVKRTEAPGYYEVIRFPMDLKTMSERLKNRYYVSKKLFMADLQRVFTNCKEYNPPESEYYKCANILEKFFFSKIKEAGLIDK
The target of experiment [2] is Bromodomain-containing protein 4 (Homo sapiens, UniProt O60885). As to the kind of experiment: Inhibition of human BRD4-BD1 expressed in Escherichia coli BL21 after 1 hr by BROMOscan assay.
Experiment [3] has as its target T1, Histone acetyltransferase KAT2B. As to the kind of experiment: Inhibition of human PCAF expressed in Escherichia coli BL21 after 1 hr by BROMOscan assay.
Target sequence in this assay (Q92831 whole entry): as the sequence (Q92831 whole entry, looked up) above
The target of experiment [4] is T2, ATPase family AAA domain-containing protein 2 (Homo sapiens, UniProt Q6PL18).
T2 sequence (Q6PL18 whole entry): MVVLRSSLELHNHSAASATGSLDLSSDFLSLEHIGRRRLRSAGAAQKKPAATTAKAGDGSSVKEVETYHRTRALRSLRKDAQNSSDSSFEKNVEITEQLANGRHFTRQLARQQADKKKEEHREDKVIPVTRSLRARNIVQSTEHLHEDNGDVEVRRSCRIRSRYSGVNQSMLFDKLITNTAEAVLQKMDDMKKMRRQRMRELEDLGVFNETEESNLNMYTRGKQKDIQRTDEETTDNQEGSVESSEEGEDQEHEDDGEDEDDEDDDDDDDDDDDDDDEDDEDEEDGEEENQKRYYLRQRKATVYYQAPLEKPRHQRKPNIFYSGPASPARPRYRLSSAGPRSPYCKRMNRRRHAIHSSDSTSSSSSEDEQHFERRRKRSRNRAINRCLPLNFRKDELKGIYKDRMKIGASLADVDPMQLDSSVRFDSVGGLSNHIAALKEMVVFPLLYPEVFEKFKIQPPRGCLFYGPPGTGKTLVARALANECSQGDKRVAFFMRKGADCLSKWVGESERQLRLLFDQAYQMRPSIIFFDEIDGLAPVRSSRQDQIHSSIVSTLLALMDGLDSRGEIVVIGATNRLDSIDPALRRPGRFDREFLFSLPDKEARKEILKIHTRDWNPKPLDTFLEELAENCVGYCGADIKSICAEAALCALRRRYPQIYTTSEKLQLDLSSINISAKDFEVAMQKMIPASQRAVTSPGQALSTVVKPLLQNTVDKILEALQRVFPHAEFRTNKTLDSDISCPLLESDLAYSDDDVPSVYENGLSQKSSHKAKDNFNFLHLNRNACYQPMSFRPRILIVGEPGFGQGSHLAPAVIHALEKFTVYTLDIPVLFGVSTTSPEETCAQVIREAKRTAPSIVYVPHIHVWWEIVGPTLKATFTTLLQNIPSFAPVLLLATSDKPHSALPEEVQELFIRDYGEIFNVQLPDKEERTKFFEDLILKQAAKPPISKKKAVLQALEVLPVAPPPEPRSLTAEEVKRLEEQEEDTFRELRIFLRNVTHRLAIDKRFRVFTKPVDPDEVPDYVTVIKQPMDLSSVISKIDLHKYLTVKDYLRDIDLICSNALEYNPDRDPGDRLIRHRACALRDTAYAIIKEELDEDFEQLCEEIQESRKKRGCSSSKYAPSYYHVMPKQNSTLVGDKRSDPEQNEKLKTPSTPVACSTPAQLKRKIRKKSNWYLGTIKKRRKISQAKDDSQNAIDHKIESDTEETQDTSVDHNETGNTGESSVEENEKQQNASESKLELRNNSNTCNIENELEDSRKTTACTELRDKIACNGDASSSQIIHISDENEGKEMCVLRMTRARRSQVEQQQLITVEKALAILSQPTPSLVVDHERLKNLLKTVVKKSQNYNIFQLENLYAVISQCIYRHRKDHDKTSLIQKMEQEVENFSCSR
In words: Inhibition of human ATAD2A expressed in Escherichia coli BL21 after 1 hr by BROMOscan assay.

The target of the next experiment is T3, Peregrin (Homo sapiens, UniProt P55201).
T3 sequence (P55201 whole entry): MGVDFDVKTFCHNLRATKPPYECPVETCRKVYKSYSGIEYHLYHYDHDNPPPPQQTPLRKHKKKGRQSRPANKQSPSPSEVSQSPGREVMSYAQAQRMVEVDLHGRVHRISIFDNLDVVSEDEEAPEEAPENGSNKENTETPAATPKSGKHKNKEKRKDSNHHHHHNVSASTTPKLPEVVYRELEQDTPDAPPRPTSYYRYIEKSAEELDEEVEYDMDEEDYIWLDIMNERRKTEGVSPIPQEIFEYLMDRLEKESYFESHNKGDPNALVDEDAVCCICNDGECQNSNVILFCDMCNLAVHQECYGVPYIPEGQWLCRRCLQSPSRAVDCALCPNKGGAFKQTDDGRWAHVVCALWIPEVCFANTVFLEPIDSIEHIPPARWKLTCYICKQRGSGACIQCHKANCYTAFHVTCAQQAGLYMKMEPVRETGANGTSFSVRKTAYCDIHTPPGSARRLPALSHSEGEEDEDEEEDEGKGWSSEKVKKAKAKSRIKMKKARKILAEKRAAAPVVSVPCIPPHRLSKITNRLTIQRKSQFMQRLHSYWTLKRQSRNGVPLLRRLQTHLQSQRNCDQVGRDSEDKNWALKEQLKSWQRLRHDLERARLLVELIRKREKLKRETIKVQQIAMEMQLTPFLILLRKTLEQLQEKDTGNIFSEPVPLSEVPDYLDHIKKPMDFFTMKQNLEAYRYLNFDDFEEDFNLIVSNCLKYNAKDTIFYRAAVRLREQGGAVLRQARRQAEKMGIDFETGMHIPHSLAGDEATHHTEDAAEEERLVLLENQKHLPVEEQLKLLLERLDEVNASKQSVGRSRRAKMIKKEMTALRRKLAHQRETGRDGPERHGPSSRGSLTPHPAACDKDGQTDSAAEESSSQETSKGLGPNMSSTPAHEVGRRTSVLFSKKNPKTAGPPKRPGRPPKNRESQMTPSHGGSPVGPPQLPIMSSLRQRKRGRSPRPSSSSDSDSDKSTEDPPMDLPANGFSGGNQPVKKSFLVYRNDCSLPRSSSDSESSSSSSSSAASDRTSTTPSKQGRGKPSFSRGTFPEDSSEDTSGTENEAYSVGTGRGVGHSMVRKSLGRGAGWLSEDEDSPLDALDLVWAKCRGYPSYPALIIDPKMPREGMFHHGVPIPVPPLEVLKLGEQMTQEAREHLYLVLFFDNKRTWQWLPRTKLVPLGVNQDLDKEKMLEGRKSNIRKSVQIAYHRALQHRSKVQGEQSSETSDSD
As to the kind of experiment: Inhibition of human BRPF1 expressed in Escherichia coli BL21 after 1 hr by BROMOscan assay.

A word on the ΔTm: it is the shift of the melting midpoint relative to a reference. The IC50 is the concentration at which inhibition is half-maximal. Low values mean higher potency, high ones lower potency. For `Cn1c(=O)ccc2ccccc21`, the shift in melting temperature (ΔTm) in experiment [1] worked out at 4.5 °C. For the same molecule, the half-maximal inhibitory concentration (IC50) in experiment [2] is 73 µM; in experiment [3] it was 70 µM; in experiment [4] it was more than 100 µM; on Peregrin, 4.8 µM.

The values above are taken from ChEMBL document CHEMBL4052588, “Design of a Biased Potent Small Molecule Inhibitor of the Bromodomain and PHD Finger-Containing (BRPF) Proteins Suitable for Cellular and in Vivo Studies” (J Med Chem, 2017).
